According to patent US20260158009A1 (GENZYME CORPORATION, priority 2023, published 2026):

Legend:
U937 cells = assay: Cellular assay in U937 cells: activity of RIPK1 inhibitors on TNFα/zVAD.fmk-induced cell death (necroptosis), CellTiter 96 AQueous (MTS) readout; format: cell-based; conditions: Homo sapiens, U-937
Procedure, shortened: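 Necroptosis was measured by viable-cell MTS reduction (4 h, absorbance 490 nm) after overnight (18–24 h) 37° C culture. Cell suspensions of U937 cells carried TNFα (100 ng/ml) plus zVAD.fmk (50 μM) before compound was added. A 10-point curve (10 μM–0.26 nM or 1 μM–0.07 nM) was run in duplicate, normalised to the control lacking TNFα/zVAD.fmk.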

[1] = biological target: T1, hRIPK1 (aa 1-375) fusion protein (Homo sapiens, UniProt Q13546); assay: ADP-Glo kinase assay: catalytic activity of RIPK1 (autophosphorylation, conversion of ATP to ADP); format: biochemical
T1 construct: hRIPK1 (aa 1-375) fusion protein
T1 sequence (Q13546 1-375): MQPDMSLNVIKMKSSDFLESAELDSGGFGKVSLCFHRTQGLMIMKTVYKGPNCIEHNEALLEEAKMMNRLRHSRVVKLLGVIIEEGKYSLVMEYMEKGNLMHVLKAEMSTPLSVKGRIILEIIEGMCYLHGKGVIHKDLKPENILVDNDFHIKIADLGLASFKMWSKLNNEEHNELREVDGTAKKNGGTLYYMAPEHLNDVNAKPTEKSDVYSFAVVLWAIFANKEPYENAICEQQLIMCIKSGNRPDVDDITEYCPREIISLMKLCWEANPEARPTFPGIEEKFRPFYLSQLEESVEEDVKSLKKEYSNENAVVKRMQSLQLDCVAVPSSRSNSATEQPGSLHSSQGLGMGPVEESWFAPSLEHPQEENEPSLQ
Procedure, shortened: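 The readout was ADP-Glo luminescence after a 240 min rt autophosphorylation reaction with 50 μM ATP, following 30 min preincubation of 3.6 μg/ml hRIPK1 (aa 1-375) fusion with compound at 33300-1.69 nM final in 1% DMSO. Values came from Levenberg-Marquardt nonlinear fits.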

O=C1NCc2ccc(C[C@H]3CC[C@H](C(=O)N4OCC[C@H]4c4ccc(F)cc4)CC3)cc21 [compound 154, trans-6-[[4-[(3S)-3-(4-fluorophenyl)isoxazolidine-2-carbonyl]cyclohexyl]methyl]isoindolin-1-one]
IC50 (U937 cells): 33 nM
IC50 [1]: 23 nM

N#Cc1cc(F)cc([C@@H]2CCON2C(=O)[C@H]2CC[C@H](Cn3ncc4cc(C#N)c(F)cc43)CC2)c1 [compound 66, trans-1-((4-((S)-3-(3-cyano-5-fluorophenyl)isoxazolidine-2-carbonyl)cyclohexyl)methyl)-6-fluoro-1H-indazole-5-carbonitrile]
IC50 (U937 cells): 2 nM
IC50 [1]: 18 nM

N#Cc1cc(F)cc([C@@H]2CCON2C(=O)[C@H]2CC[C@H](Cn3ccc4cc(F)ccc43)CC2)c1 [compound 95, trans-3-fluoro-5-((S)-2-(4-((5-fluoro-1H-indol-1-yl)methyl)cyclohexane-1-carbonyl)isoxazolidin-3-yl)benzonitrile]
IC50 (U937 cells): 4 nM
IC50 [1]: 22 nM

N#Cc1cc(F)cc([C@@H]2CCON2C(=O)[C@H]2CC[C@H](Cn3ccc4ncc(OCC5CC5)cc43)CC2)c1 [compound 152, trans-3-[(3S)-2-[4-[[6-(cyclopropylmethoxy)pyrrolo[3,2-b]pyridin-1-yl]methyl]cyclohexanecarbonyl]isoxazolidin-3-yl]-5-fluoro-benzonitrile]
IC50 (U937 cells): 3 nM
IC50 [1]: 7 nM

N#Cc1cc(F)cc([C@@H]2CCON2C(=O)[C@H]2CC[C@H](Cn3cc4ccc(C#N)cc4n3)CC2)c1 [compound 30, trans-2-((4-((S)-3-(3-cyano-5-fluorophenyl)isoxazolidine-2-carbonyl)cyclohexyl)methyl)-2H-indazole-6-carbonitrile]
IC50 (U937 cells): 68 nM
IC50 [1]: 39 nM

N#Cc1cc(F)cc([C@@H]2CCON2C(=O)[C@H]2CC[C@H](Cn3ccc4ccncc43)CC2)c1 [compound 16, trans-3-((S)-2-(4-((1H-pyrrolo[2,3-c]pyridin-1-yl)methyl)cyclohexane-1-carbonyl)isoxazolidin-3-yl)-5-fluorobenzonitrile]
IC50 (U937 cells): 6 nM
IC50 [1]: 39 nM

Cc1ncc([C@@H]2CCON2C(=O)[C@H]2CC[C@H](Cc3ccnn3C)CC2)cc1F [compound 404, trans-[(3S)-3-(5-fluoro-6-methylpyridin-3-yl)-1,2-oxazolidin-2-yl]-[4-[(2-methylpyrazol-3-yl)methyl]cyclohexyl]methanone]
IC50 (U937 cells): 22 nM
IC50 [1]: 15 nM

Cn1cncc1C[C@H]1CC[C@H](C(=O)N2OCC[C@H]2c2cc(F)cc(C#N)c2)CC1 [compound 167, trans-3-fluoro-5-[(3S)-2-[4-[(3-methylimidazol-4-yl)methyl]cyclohexanecarbonyl]isoxazolidin-3-yl]benzonitrile]
IC50 (U937 cells): 100 nM
IC50 [1]: 104 nM

Cc1nc([C@@H]2CCON2C(=O)[C@H]2CC[C@H](Cc3cc(C)c4ncnn4c3)CC2)cs1 [compound 362, trans-[(S)-3-(2-Methyl-thiazol-4-yl)-isoxazolidin-2-yl]-[4-(8-methyl-[1,2,4]triazolo[1,5-a]pyridin-6-ylmethyl)-cyclohexyl]-methanone]
IC50 (U937 cells): 52 nM
IC50 [1]: 59 nM

Cc1nc2ccc(C[C@H]3CC[C@H](C(=O)N4OCC[C@H]4c4cc(F)cc(C#N)c4)CC3)cn2n1 [compound 221, trans-3-fluoro-5-[(3S)-2-[4-[(2-methyl-[1,2,4]triazolo[1,5-a]pyridin-6-yl)methyl]cyclohexanecarbonyl]isoxazolidin-3-yl]benzonitrile]
IC50 (U937 cells): 19 nM
IC50 [1]: 22 nM

Cc1cnc([C@@H]2CCON2C(=O)[C@H]2CC[C@H](Cc3cc(C)ncc3C)CC2)cn1 [compound 339, trans-[4-[(2,5-dimethylpyridin-4-yl)methyl]cyclohexyl]-[(3S)-3-(5-methylpyrazin-2-yl)-1,2-oxazolidin-2-yl]methanone]
IC50 (U937 cells): 16 nM
IC50 [1]: 25 nM

Cc1nn(C[C@H]2CC[C@H](C(=O)N3OCC[C@H]3c3cc(F)cc(F)c3)CC2)c2cc(C#N)c(F)cc12 [compound 84]
IC50 (U937 cells): 4 nM
IC50 [1]: 13 nM

Cc1ccc(C[C@H]2CC[C@H](C(=O)N3OCC[C@H]3c3cnccn3)CC2)cc1C#N [compound 139, trans-2-methyl-5-[[4-[(3S)-3-pyrazin-2-ylisoxazolidine-2-carbonyl]cyclohexyl]methyl]benzonitrile]
IC50 (U937 cells): 2 nM
IC50 [1]: 10 nM

COc1cncc([C@@H]2CCON2C(=O)[C@H]2CC[C@H](Cn3ncc4ncc(C#N)cc43)CC2)n1 [compound 186, trans-1-[[4-[(3S)-3-(6-methoxypyrazin-2-yl)isoxazolidine-2-carbonyl]cyclohexyl]methyl]pyrazolo[4,3-b]pyridine-6-carbonitrile]
IC50 (U937 cells): 39 nM
IC50 [1]: 23 nM

COc1cc(C[C@H]2CC[C@H](C(=O)N3OCC[C@H]3c3cncc(F)c3)CC2)cn2nc(C)nc12 [compound 345, trans-[(3S)-3-(5-fluoropyridin-3-yl)-1,2-oxazolidin-2-yl]-[4-[(8-methoxy-2-methyl-[1,2,4]triazolo[1,5-a]pyridin-6-yl)methyl]cyclohexyl]methanone]
IC50 (U937 cells): 8 nM
IC50 [1]: 26 nM

N#Cc1cc(F)cc([C@@H]2CCON2C(=O)[C@H]2CC[C@H](Cn3cnc4ccc(F)cc43)CC2)c1 [compound 112, trans-3-fluoro-5-((S)-2-(4-((6-fluoro-1H-benzo[d]imidazol-1-yl)methyl)cyclohexane-1-carbonyl)isoxazolidin-3-yl)benzonitrile]
IC50 (U937 cells): 7 nM
IC50 [1]: 23 nM

N#Cc1cc(C[C@H]2CC[C@H](C(=O)N3OCC[C@H]3c3ccc(F)cc3)CC2)ccc1F [compound 242, trans-2-fluoro-5-[[4-[(3S)-3-(4-fluorophenyl)isoxazolidine-2-carbonyl]cyclohexyl]methyl]benzonitrile]
IC50 (U937 cells): 16 nM
IC50 [1]: 21 nM

Cc1nnc2c(F)cc(C[C@H]3CC[C@H](C(=O)N4OCC[C@H]4c4cnccn4)CC3)cn12 [compound 359, trans-[4-[(8-fluoro-3-methyl-[1,2,4]triazolo[4,3-a]pyridin-6-yl)methyl]cyclohexyl]-[(3S)-3-pyrazin-2-yl-1,2-oxazolidin-2-yl]methanone]
IC50 (U937 cells): 451 nM
IC50 [1]: 104 nM

NC(=O)c1ccc2cnn(C[C@H]3CC[C@H](C(=O)N4OCC[C@H]4c4cnccn4)CC3)c2c1 [Compound 229, trans-1-[[4-[(3S)-3-pyrazin-2-ylisoxazolidine-2-carbonyl]cyclohexyl]methyl]indazole-6-carboxamide]
IC50 (U937 cells): 78 nM
IC50 [1]: 25 nM

N#Cc1cnc2ccn(C[C@H]3CC[C@H](C(=O)N4OCC[C@H]4c4ccccn4)CC3)c2c1 [compound 188, trans-1-[[4-[(3S)-3-(2-pyridyl)isoxazolidine-2-carbonyl]cyclohexyl]methyl]pyrrolo[3,2-b]pyridine-6-carbonitrile]
IC50 (U937 cells): 124 nM
IC50 [1]: 37 nM

Cc1cn(C[C@H]2CC[C@H](C(=O)N3OCC[C@H]3c3cc(F)cc(C#N)c3)CC2)c2cc(C(N)=O)ccc12 [compound 110, trans-1-((4-((S)-3-(3-cyano-5-fluorophenyl)isoxazolidine-2-carbonyl)cyclohexyl)methyl)-3-methyl-1H-indole-6-carboxamide]
IC50 (U937 cells): 11 nM
IC50 [1]: 22 nM

Cc1cnc([C@@H]2CCON2C(=O)[C@H]2CC[C@H](Cc3cc(C)c4nc(C)nn4c3)CC2)cn1 [compound 328, trans-[4-[(2,8-dimethyl-[1,2,4]triazolo[1,5-a]pyridin-6-yl)methyl]cyclohexyl]-[(3S)-3-(5-methylpyrazin-2-yl)isoxazolidin-2-yl]methanone; 2,2,2-trifluoroacetic]
IC50 (U937 cells): 82 nM
IC50 [1]: 47 nM

Cc1ncc(F)cc1C[C@H]1CC[C@H](C(=O)N2OCC[C@H]2c2cc(F)cc(F)c2)CC1 [compound 182, trans-[(3S)-3-(3,5-difluorophenyl)isoxazolidin-2-yl]-[4-[(5-fluoro-2-methyl-3-pyridyl)methyl]cyclohexyl]methanone]
IC50 (U937 cells): 1 nM
IC50 [1]: 22 nM

COc1cncc([C@@H]2CCON2C(=O)[C@H]2CC[C@H](Cn3ccc4ccc(C#N)cc43)CC2)n1 [compound 241, trans-1-[[4-[(3S)-3-(6-methoxypyrazin-2-yl)isoxazolidine-2-carbonyl]cyclohexyl]methyl]indole-6-carbonitrile]
IC50 (U937 cells): 28 nM
IC50 [1]: 148 nM

NC(=O)c1ccc2c(ccn2C[C@H]2CC[C@H](C(=O)N3OCC[C@H]3c3ccccn3)CC2)c1 [compound 255, trans-1-[[4-[(3S)-3-(2-pyridyl)isoxazolidine-2-carbonyl]cyclohexyl]methyl]indole-5-carboxamide]
IC50 (U937 cells): 521 nM
IC50 [1]: 25 nM

Cc1cc(C[C@H]2CC[C@H](C(=O)N3OCC[C@H]3c3cc(F)cc(C#N)c3)CC2)nc(C)n1 [compound 312, 3-[(3S)-2-[4-[(2,6-dimethylpyrimidin-4-yl)methyl]cyclohexanecarbonyl]isoxazolidin-3-yl]-5-fluoro-benzonitrile]
IC50 (U937 cells): 20 nM
IC50 [1]: 38 nM
